Columns and labels:
[1] = tested on: phosphorylation of Pyk2 at Tyr402; experiment: Western blot of Pyk2 phosphorylation in MCF-7 cells; type: cell-based; conditions: MCF-7, 1 h treatment
Protocol: (§1) Equal amounts of cell lysates were loaded onto 10% SDS-PAGE gel and separated by electrophoresis. Separated proteins were then electro-transferred onto polyvinylidene fluoride (PVDF) membranes (Millipore, Bedford, USA). After being blocked with Tris-buffered saline containing 0.1% Tween-20 (TBST) and 5% bovine serum albumin (BSA), the membranes were incubated with primary antibodies at room temperature for 2 hours or at 4°C, then washed with TBST, followed by treatment with horseradish peroxidase (HRP)-conjugated goat anti-rabbit IgG secondary antibody at room temperature for another 1 h. The targeted protein bands were visualized using an enhanced chemiluminescence (ECL) plus system (Thermo Fisher Scientific). […]
(§2) Figure4 Inhibitory effects of SY-707 on the phosphorylation of FAK(A,B) Concentration-dependent inhibition of SY-707 on phosphorylation of FAK in T47D (A) and MCF-7 (B) cells. […] Cell lysates were analyzed by western blot analysis using specific antibodies against p-FAK, p-Pyk2, p-AKT and p-ERK respectively. […] Cell lysates were analyzed by western blot analysis using specific antibodies against p-IGF1R, p-STAT3, p-AKT and p-ERK respectively.

[2] = tested on: 4T1 breast cancer metastasis to the lung; experiment: Metastasis analysis in vivo (lung nodules, 4T1 model); parameters: species or system nude mice; conditions: 4T1, treatment alone: SY-707 100 mg/kg/day PO; paclitaxel 10 or 20 mg/kg/week IV; 20 days; not statistically different
Protocol: Metastasis was detected in mouse lungs after the mice were sacrificed at the last dosing day. The lungs of each mouse were excised immediately and fixed with 4% paraformaldehyde for 24 h, then the lungs were photographed (three photographs per section per mouse) and the metastatic nodules in the lungs were manually counted and the data was analyzed for compound evaluation.
Mice were inoculated with 4T1 cells in PBS at right and left flanks expect the normal control group ( Figure 6A), SY-707 with or without paclitaxel was administered for 20 days when tumor volumes reached 150–300 mm ^3. The mice were sacrificed on the last day of drug administration, then the lungs were collected and metastatic nodules were counted manually for the evaluation of metastasis of 4T1 breast cancer.
The normal group (A) and the vehicle group which treatment with 20% SBE (B) were control. Mouse lungs were taken at the last day of treatment and fixed with 4% paraformaldehyde for 24 h, then the lungs were photographed and the metastatic nodules were counted manually for further analysis. *P<0.05, **P<0.01.

solid cancer cells = experiment: Cell proliferation assay, summary over the cell line series; type: cell-based; conditions: 72 h, read-out: IC50 values (summary over the solid cancer cell lines)
Protocol: MCF-7, T47D, MDA-MB-231, MIA Paca-2, PANC-1, SW620, HT-29, U87MG, and A549 cell lines were purchased from the Cell Bank of Chinese Academy of Science (Shanghai, China). Cells were cultured in DMEM or RPMI-1640 (Gibco, BRL, USA) supplemented with 10% FBS (HyClone, Logan, USA) and 50 IU penicillin/streptomycin in a humidified atmosphere with 5% CO 2 at 37°C. The effects of SY-707 on cell proliferation were measured using CellTiter-Glo ® or CellTiter-Blue ® Cell Viability Assay kits (Promega, Beijing, China). In brief, cells were seeded in 96-well plates at low destiny with 195 μL of medium per well. The stock solutions of compounds were 3-fold serially diluted with DMSO from 10 mM to 0.3 nM, and 4 μL of solution at each concentration was mixed with 96 μL of serum free medium, then 5 μL of the resulted solution was added to each well. […] The luminescence signals were measured using EnVision ® multilabel plate reader (PerkinElmer), and the fluorescent signals were examined using FlexStation 3 (Molecular Devices, Sunnyvale, USA), and the IC 50 values were calculated using Prism ® software (Version 5.0) and presented as the average of three independent experiments performed in duplicate.

MCF-7 cells [3] = experiment: Cell cycle analysis (PI, flow cytometry); type: cell-based; conditions: MCF-7, 24 h, dose-dependent; decrease of S phase
Protocol: (§3) MCF-7 cells were treated with 0.1% DMSO (control) or with SY-707 solution at indicated concentrations for 24 h at 37°C, then the cells were harvested by centrifugation at 350 g and washed twice with PBS. Cell apoptosis was determined using the PE Annexin V Apoptosis Detection kit (BD Biosciences, San Jose, USA) following the manufacture’s guides. Breifly, cells were resuspended with 100 μL of binding buffer containing Annexin V and 7-AAD. After 15 min of incubation at room temperature in the dark, 400 μL of binding buffer was added to the mixture and the cells were analyzed with a Guava flow cytometer (Millipore). Cell cycle arrest was evaluated by incorporation of propidium (PI; Sigma-Aldrich, St Louis, USA) into the permeablized cells. After being treated with DMSO or compounds for 24 h, cells were harvested, washed twice with cold PBS, fixed with ice-cold 70% ethanol, followed by a secondary staining step with staining buffer (0.25 mg/mL RNase, 0.025 mg/mL PI, in PBS) for 1 h at 37°C. Compound regulation of cell-cycle was analyzed using the Guava flow cytometer. Data were analyzed with FlowJo software.

[4] = tested on: phosphorylation of Pyk2 at Tyr402; experiment: Western blot of Pyk2 phosphorylation in T47D cells; type: cell-based; conditions: 1 h treatment
Protocol: as §1, §2

T47D xenograft = experiment: T47D tumor xenograft study; type: in vivo, nude mice
Protocol: Due to the strong cell growth inhibition potency of SY-707, we firstly evaluate its in vivo anti-cancer activity in T47D xenograft model mice. In this model, mice were orally administered twice a day with vehicle or SY-707 at dose of 100, 50 or 25 mg/kg after tumor size reached 150–300 mm ^3.
Next, we evaluated the combination effects of SY-707 and paclitaxel (an approved drug for breast cancer therapy) in T47D xenograft model. Mice bearing T47D breast cancer were divided randomly into 4 groups: vehicle, SY-707 (100 mg/kg/day), paclitaxel (10 mg/kg/week), and SY-707 plus paclitaxel groups.

MCF-7 cells [5] = experiment: PE Annexin V/7-AAD apoptosis flow cytometry; type: cell-based; conditions: MCF-7, 0.01, 0.1 and 1 μM, 24 h
Protocol: as §3

phosphorylation of IGF1R = experiment: Western blot of IGF1R phosphorylation in T47D cells after IGF1; type: cell-based; conditions: 1 h treatment, then 100 ng/mL IGF1 for 10 min, dose-dependent
Protocol: as §1, §2

## COc1cc(N2CCC(N3CCN(C)CC3)CC2)ccc1Nc1nc2c(c(Nc3ccccc3S(=O)(=O)NC(C)C)n1)CCN2 [SY-707, N-isopropyl-2-((2-((2-methoxy-4-(4-(4-methylpiperazin-1-yl)piperidin-1-yl)phenyl)amino)-6,7-dihydro-5H-pyrrolo[2,3-d]pyrimidin-4-yl)amino)benzenesulfonamide]
[1]
  phosphorylation of Pyk2 at Tyr402: dose-dependently suppressed
[2]
  number of metastatic nodules in the lungs vs vehicle group: reduced the number of metastatic nodules
Solid cancer cells
  IC50: 0.5 to 10 µM
MCF-7 cells [3]
  cell cycle arrest: pronounced G2/M phase arrest
[4]
  phosphorylation of Pyk2 at Tyr402: dose-dependently suppressed
T47D xenograft; 25 mg/kg orally twice a day, 21 days, P<0.05
  tumor growth inhibition rate: 31%
T47D xenograft; 50 mg/kg orally twice a day, 21 days, P<0.05
  tumor growth inhibition rate: 39%
T47D xenograft; 100 mg/kg orally twice a day, 21 days, P<0.01
  tumor growth inhibition rate: 61%
T47D xenograft; combination study, SY-707 100 mg/kg/day alone, 24 days
  tumor growth inhibition rate: 14%
MCF-7 cells [5]
  Late apoptosis: dose-dependently induced
Phosphorylation of IGF1R
  phosphorylation of IGF1R: block the phosphorylation

Source: PMC9909315, “SY-707, an ALK/FAK/IGF1R inhibitor, suppresses growth and metastasis of breast cancer cells” (Acta Biochimica et Biophysica Sinica, 2022)
